Holding throughout (assay type): cell-based
The subject of test [1] is M pneumoniae 427a. The test can be described thus: in vitro anti-mycoplasmal MIC, Friis' broth (Table 3). On the procedure: (§1) The minimum inhibitory concentrations (MIC) of the examples were determined by either:
(§2) (i) in Friis' broth using microtitre plates, by modification of the metabolic-inhibition test (Taylor-Robinson, Post Frad, Med. J., 1967, 43, 100).

In test [2] the test system is M pneumoniae ATCC 15492. The test is described as above. How it is done:
as §1, §2

The test system of another test is M suipneumoniae Str 11. Described as above. How it is done:
as §1, §2

Another test relates to M dispar NCTC 10125. Described as above. How it is done: as §1, §2
Test [3] relates to M pulmonis JB. The test is described as above. How it is done: as §1, §2
The subject of test [4] is M suipneumoniae J2206/183b. Described as above. On the procedure:
as §1, §2

Test [5] deals with M fermentans MWKL4. The test is described as above. On the procedure:
as §1, §2

Another test concerns M dispar H225. The test is described as above. On the procedure:
as §1, §2

In another test the test system is M gallisepticum S6. The test can be described thus: in vitro anti-mycoplasmal MIC, Friis' agar (Table 3). On the procedure: as §1
(§3) or (ii) by serial dilution in Friis' agar medium.

Test [6] relates to M pneumoniae 427a. The test is described as above. On the procedure: as §1, §3
Test [7] deals with M pneumoniae ATCC 15492. The test is described as above. On the procedure: as §1, §3
Another test concerns M hyorhinis ATCC 23234. The description is as above. On the procedure: as §1, §3
Test [8] has as its system M bovigenitalium ATCC 14173. Described as above. How it is done:
as §1, §3

Test [9] has as its system M pulmonis JB. The description is as above. On the procedure: as §1, §3
The subject of a further test is M alkalescens NCTC 10135. The test is described as above. On the procedure: as §1, §3
Test [10] relates to M fermentans MWKL4. The description is as above. On the procedure: as §1, §3
For a further test, the system named is M synoviae ATCC 25204. The description is as above. How it is done: as §1, §3
In the next test the test system is M hyosynoviae ATCC 25591. The description is as above. On the procedure: as §1, §3
In the next test the test system is M arthritidis ATCC 14124. The test is described as above. How it is done: as §1, §3
The subject of test [11] is M. hyosynoviae ATCC 25591. The test can be described thus: anti-mycoplasmal MIC, Friis broth solidified with agarose (Table 4). The note with it: 144 h.
A further test relates to M. suipneumoniae JF435. Described as above. The following applies: Mesomycoplasma hyopneumoniae.
The next test has as its system M. suipneumoniae NB12. The test is described as above. The following applies: Mesomycoplasma hyopneumoniae.
A further test relates to M. hyorhinis ATCC 23234. The description is as above. The note with it: Mesomycoplasma hyorhinis, ATCC23234, 144 h, 6 days at 37° C.
The test system of test [12] is M. suipneumoniae J2206/183b. Described as above. The following applies: Mesomycoplasma hyopneumoniae, 144 h, 6 days at 37° C.
A further test deals with M. suipneumoniae TAM 6N. Described as above. The note with it: Mesomycoplasma hyopneumoniae, TAM6N, 144 h, 6 days at 37° C.
Another test has as its system M. pneumoniae ATCC 15492. The test is described as above. The following applies: Mycoplasmoides pneumoniae, ATCC15492, 144 h, 6 days at 37° C.
Test [13] concerns M. bovigenitalium ATCC 14173. The test is described as above. The following applies: 144 h.
A further test deals with B. subtilis ATCC 6633. The experiment in a line: MIC veterinary bacteria (Table 2), serial dilution in agar. The following applies: diagnostic sensitivity test agar.
In the next test the test system is M. gallisepticum S6. The test can be described thus: anti-mycoplasmal MIC, Friis broth solidified with agarose (Table 4). The following applies: Mycoplasmoides gallisepticum.
Test [14] relates to M. suipneumoniae ATCC 25095. Described as above. The note with it: Mesomycoplasma hyopneumoniae, ATCC25095, 144 h, 6 days at 37° C.
The next test has as its system M. bovis NCTC 10131. The test can be described thus: microbe, parasite or virus in culture. The following applies: NCTC10131, 144 h.
A further test has as its system M. suipneumoniae Str. 11. The experiment in a line: anti-mycoplasmal MIC, Friis broth solidified with agarose (Table 4). The following applies: Mesomycoplasma hyopneumoniae.
The test system of test [15] is M. suipneumoniae NCTC 10110. Described as above. The following applies: Mesomycoplasma hyopneumoniae, NCTC10110, 144 h.
For the next test, the system named is M. suipneumoniae HK(2). The description is as above. The following applies: Mesomycoplasma hyopneumoniae, 144 h, 6 days at 37° C.
In test [16] the test system is 12 strains of M. suipneumoniae. The experiment in a line: anti-mycoplasmal MIC, Friis broth solidified with agarose (Table 4), mean over strains. The following applies: Mesomycoplasma hyopneumoniae, 144 h; mean of 12 strains; 6 days at 37° C.; read-out: Mean MIC for above 12 strains of M. suipneumoniae.
Another test relates to M. hyorhinis ATCC 25021. The experiment in a line: anti-mycoplasmal MIC, Friis broth solidified with agarose (Table 4). The following applies: Mesomycoplasma hyorhinis, ATCC25021, 144 h, 6 days at 37° C.

The values below come from patent publication US4312867A, “Antibacterial compounds, processes for their preparation and compositions containing them” (Beecham Group Limited, priority 1979, dated 1982).

In brackets after ≈: the same amount, converted by molar mass. Read-outs that look alike come from different tables or passages of the source. Where only a bound is given, the exact number is not on record here.

In the case of `C/C(=C\C(=O)OCCCCCCS(N)(=O)=O)CC1OCC(CC2OC2C(C)C(C)O)C(O)C1O` (stereo not drawn) [Example 2, 6-Sulphamoylhexyl monate A], the MIC was 0.312 µg/mL (≈ 0.615 µM) against M pneumoniae 427a [1]; 0.312 µg/mL (≈ 0.615 µM) with M pneumoniae ATCC 15492 [2]; at most 0.02 µg/mL against M suipneumoniae Str 11; under 0.02 µg/mL against M dispar NCTC 10125; under 0.02 µg/mL in the test on M pulmonis JB [3]; 0.156 µg/mL (≈ 0.307 µM) in test [4]. In addition, the MIC against M fermentans MWKL4 [5] is under 0.02 µg/mL; in the test on M dispar H225 it was under 0.02 µg/mL; with M gallisepticum S6 it was 2.5 µg/mL (≈ 4.92 µM); in the test on M pneumoniae 427a [6], 0.312 µg/mL (≈ 0.615 µM); against M pneumoniae ATCC 15492 [7] it was 0.625 µg/mL (≈ 1.23 µM); against M hyorhinis ATCC 23234, 0.156 µg/mL (≈ 0.307 µM). Further, the MIC was at most 0.02 µg/mL in test [8]; at most 0.02 µg/mL in the test on M pulmonis JB [9]; under 0.02 µg/mL in the test with M alkalescens NCTC 10135; 0.039 µg/mL (≈ 0.0768 µM) with M fermentans MWKL4 [10]; under 0.02 µg/mL in the test with M synoviae ATCC 25204; 0.039 µg/mL (≈ 0.0768 µM) with M hyosynoviae ATCC 25591. In addition, in the test with M arthritidis ATCC 14124, the MIC worked out at 5 µg/mL (≈ 9.85 µM).

As for `C/C(=C\C(=O)OCCCS(=O)(=O)N(C)C)CC1OCC(CC2OC2C(C)C(C)O)C(O)C1O` (stereo not drawn) [Example 4, 3-N,N-Dimethylsulphamoylpropyl monate A], the MIC in test [11] (M. hyosynoviae ATCC 25591, 6 days at 37° C., read-out: MIC) was 250 µg/mL (≈ 506 µM); with M. suipneumoniae JF435 (JF435, 144 h) it was 1000 µg/mL (≈ 2030 µM); with M. suipneumoniae NB12 (NB12, 144 h), 500 µg/mL (≈ 1010 µM); against M. hyorhinis ATCC 23234, 250 µg/mL (≈ 506 µM); in [12], 1000 µg/mL (≈ 2030 µM); in the test with M. suipneumoniae TAM 6N, 1000 µg/mL (≈ 2030 µM). In addition, the MIC is 5000 µg/mL (≈ 10100 µM) with M. pneumoniae ATCC 15492; 50 µg/mL (≈ 101 µM) in test [13]; “No Growth” against B. subtilis ATCC 6633; over 10000 µg/mL with M. gallisepticum S6 (144 h, M. gallisepticum S6, 6 days at 37° C., read-out: MIC); 500 µg/mL (≈ 1010 µM) in test [14]; at most 10 µg/mL against M. bovis NCTC 10131. The MIC in the test with M. suipneumoniae Str. 11 (144 h, M. suipneumoniae Str. 11, 6 days at 37° C., read-out: MIC) came to 500 µg/mL (≈ 1010 µM); in [15] it was 1000 µg/mL (≈ 2030 µM); with M. suipneumoniae HK(2), 1000 µg/mL (≈ 2030 µM); in test [16], 750 µg/mL (≈ 1520 µM); with M. hyorhinis ATCC 25021, 250 µg/mL (≈ 506 µM).

On to `C/C(=C\C(=O)OCCCCCCCCS(N)(=O)=O)CC1OCC(CC2OC2C(C)C(C)O)C(O)C1O` (stereo not drawn) [Example 3, 8-Sulphamoyloctyl monate A], for which the MIC is 0.312 µg/mL (≈ 0.582 µM) with M pneumoniae 427a [1]; 0.312 µg/mL (≈ 0.582 µM) against M pneumoniae ATCC 15492 [2]; 0.02 µg/mL (≈ 0.0373 µM) in the test on M suipneumoniae Str 11; 0.02 µg/mL (≈ 0.0373 µM) in the test with M dispar NCTC 10125; 0.02 µg/mL (≈ 0.0373 µM) in the test on M pulmonis JB [3]; 0.156 µg/mL (≈ 0.291 µM) in test [4]. Moreover, the MIC with M fermentans MWKL4 [5] was determined as 0.02 µg/mL (≈ 0.0373 µM); against M dispar H225, 0.02 µg/mL (≈ 0.0373 µM); in the test on M gallisepticum S6, 2.5 µg/mL (≈ 4.67 µM); in the test on M pneumoniae 427a [6] it was 0.312 µg/mL (≈ 0.582 µM); in the test on M pneumoniae ATCC 15492 [7] it was 0.625 µg/mL (≈ 1.17 µM); with M hyorhinis ATCC 23234, 0.312 µg/mL (≈ 0.582 µM). In addition, the MIC in test [8] was under 0.039 µg/mL; in the test with M pulmonis JB [9] it was 0.039 µg/mL (≈ 0.0728 µM); in the test on M alkalescens NCTC 10135, under 0.02 µg/mL; with M fermentans MWKL4 [10], 0.039 µg/mL (≈ 0.0728 µM); in the test with M synoviae ATCC 25204, under 0.02 µg/mL; with M hyosynoviae ATCC 25591, 0.078 µg/mL (≈ 0.146 µM). Moreover, the MIC against M arthritidis ATCC 14124 is 5 µg/mL (≈ 9.33 µM).

Turning to `C/C(=C\C(=O)OC(C)CCCCCS(N)(=O)=O)CC1OCC(CC2OC2C(C)C(C)O)C(O)C1O` (stereo not drawn) [Example 5, 7-Sulphamoylhept-2-yl monate A], the MIC in [11] is 100 µg/mL (≈ 192 µM); with M. suipneumoniae JF435 (144 h, M. suipneumoniae JF435, 6 days at 37° C., read-out: MIC) it was 500 µg/mL (≈ 958 µM); in the test with M. suipneumoniae NB12 (144 h, M. suipneumoniae NB12, 6 days at 37° C., read-out: MIC), 500 µg/mL (≈ 958 µM); against M. hyorhinis ATCC 23234, 250 µg/mL (≈ 479 µM); in test [12], 500 µg/mL (≈ 958 µM); in the test with M. suipneumoniae TAM 6N, 500 µg/mL (≈ 958 µM). In addition, the MIC against M. pneumoniae ATCC 15492 is 1000 µg/mL (≈ 1920 µM); in test [13] (M. bovigenitalium ATCC 14173, 6 days at 37° C., read-out: MIC), 50 µg/mL (≈ 95.8 µM); with B. subtilis ATCC 6633, “No Growth”; against M. gallisepticum S6 (S6, 144 h), 2500 µg/mL (≈ 4790 µM); in test [14], 250 µg/mL (≈ 479 µM); against M. bovis NCTC 10131 it was at most 10 µg/mL. Moreover, the MIC against M. suipneumoniae Str. 11 (STR.11, 144 h) was 250 µg/mL (≈ 479 µM); in test [15] (M. suipneumoniae NCTC 10110, 6 days at 37° C., read-out: MIC), 500 µg/mL (≈ 958 µM); in the test with M. suipneumoniae HK(2) it was 1000 µg/mL (≈ 1920 µM); in test [16], 480 µg/mL (≈ 920 µM); in the test with M. hyorhinis ATCC 25021 it was 250 µg/mL (≈ 479 µM).
